# From patent US20150258129A1, “Method for Increasing the Activity of Lysosomal Enzymes” (Mount Sinai School of Medicine of New York University, priority 1998, published 2015)
# Positions count from the first letter of the chain named.
# Columns and labels:
# [1] = biological target: T1, glucocerebrosidase (β-Glu), L444P/L444P (Homo sapiens, UniProt P04062, L483P); assay: Intracellular enhancement of β-Glu activity in Gaucher fibroblasts (L444P/L444P); format: cell-based; conditions: 10 μM, 5 days
# T1 construct: endogenous in cells; host or cells: human Gaucher patient fibroblasts, genotype L444P/L444P
# T1 sequence (P04062 40-536 L483P): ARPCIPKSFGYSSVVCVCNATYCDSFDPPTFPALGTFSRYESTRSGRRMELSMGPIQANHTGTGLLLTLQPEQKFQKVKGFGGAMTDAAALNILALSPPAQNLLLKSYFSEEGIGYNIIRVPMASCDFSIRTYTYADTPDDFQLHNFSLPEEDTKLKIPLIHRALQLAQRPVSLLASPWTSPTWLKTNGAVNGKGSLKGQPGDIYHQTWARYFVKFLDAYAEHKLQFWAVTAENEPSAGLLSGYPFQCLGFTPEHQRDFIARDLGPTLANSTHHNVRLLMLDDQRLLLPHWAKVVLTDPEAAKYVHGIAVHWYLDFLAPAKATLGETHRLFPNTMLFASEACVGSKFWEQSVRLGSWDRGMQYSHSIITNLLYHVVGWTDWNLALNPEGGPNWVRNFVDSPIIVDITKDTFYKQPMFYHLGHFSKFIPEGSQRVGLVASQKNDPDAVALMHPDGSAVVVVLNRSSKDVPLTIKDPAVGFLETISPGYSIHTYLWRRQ
# mutant α-Gal A (R301Q) [2] = biological target: T2, mutant α-Gal A (R301Q) (Homo sapiens, UniProt P06280, R301Q); set-up: endogenous in cells; host or cells: Epstein-Barr virus-transformed lymphoblasts from a Fabry patient (R301Q); conditions: R301Q or Q279E mutations; cited from earlier work
# T2 sequence (P06280 32-429 R301Q): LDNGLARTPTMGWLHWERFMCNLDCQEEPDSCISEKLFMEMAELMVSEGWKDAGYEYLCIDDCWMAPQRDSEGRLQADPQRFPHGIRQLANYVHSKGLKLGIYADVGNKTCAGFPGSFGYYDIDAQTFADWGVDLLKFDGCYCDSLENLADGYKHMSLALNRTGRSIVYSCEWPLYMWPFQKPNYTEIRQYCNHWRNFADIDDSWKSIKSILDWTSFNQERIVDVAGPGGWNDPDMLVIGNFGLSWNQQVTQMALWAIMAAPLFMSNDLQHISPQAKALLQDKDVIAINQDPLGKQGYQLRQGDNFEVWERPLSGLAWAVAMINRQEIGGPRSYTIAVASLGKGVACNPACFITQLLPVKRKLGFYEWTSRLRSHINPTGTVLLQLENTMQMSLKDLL
# mutant (R301Q) α-Gal A = biological target: T3, mutant (R301Q) α-Gal A (Homo sapiens, UniProt P06280, R301Q); conditions: oral administration, mice overexpressing mutant (R301Q) α-Gal A; cited from earlier work
# T3 construct: host or cells: transgenic mice (organs)
# T3 sequence (P06280 32-429 R301Q): T2 sequence (P06280 32-429 R301Q)
# mutant α-Gal A (R301Q) [3] = biological target: T2, mutant α-Gal A (R301Q); assay: Intracellular enhancement of α-Gal A activity in Fabry lymphoblasts; format: cell-based; set-up: endogenous in cells; host or cells: Epstein-Barr virus-transformed lymphoblasts from a Fabry patient (R301Q); conditions: for increase of α-Gal A enzyme activity in R301Q lymphoblasts: inhibitor at 100 μM; for intracellular α-Gal A activity in Fabry lymphoblasts (summary): concentration ranges of 10-1000 μM; for α-Gal A activity in R301Q lymphoblasts with increasing concentration of calystegine compound: range 100-1000 μM, FIG. 6
# Procedure: FIG. 4B depicts results in which each inhibitor was added to the culture medium of R301Q lymphoblasts at a concentration of 100 μM. Cells were subsequently incubated for 4 days. After being washed twice with phosphate-buffered saline, the intracellular enzyme activity was determined with 4-MU-α-Gal as the substrate.
# R301Q lymphoblasts were cultured with DGJ (4) ([…]), α-allo-HNJ (9) (▪), α-galacto-HNJ (10) (▴), or β-1-C-butyl-DGJ (16) (♦) at 1-1000 μM for 4 days before being collected for enzyme assay.
# In FIG. 6B, R301Q lymphoblasts were cultured with calystegine B2 (18) and the results are shown therein. In FIG. 6C, R301Q lymphoblasts were cultured with N-methyl calystegine A3 (19) and the results are shown therein. In FIG. 6D R301Q lymphoblasts were cultured with N-methyl calystegine B2 (20) at 100-1000 μM for 4 days before being collected for enzyme assay and the results are shown therein.
# (§1) The Epstein-Barr virus-transformed lymphoblast lines from a normal adult and a Fabry patient with R301Q mutation in α-Gal A (38) were cultured in RPMI-1640 medium (Nissui Pharmaceutical Co., Tokyo, Japan) supplemented with 10% fetal calf serum (FCS) at 37° C. under 5% CO2. Human fibroblasts from Gaucher and GM1-gangliosidosis patients were cultured in McCoy 5A medium supplemented with 10% FCS at 37° C. under 5% CO2.
# (§2) Cells were cultured in the presence or absence of inhibitor for 4 days. After being washed twice with phosphate-buffered saline (PBS), the cells were harvested and homogenized in 200 μl of H2O, and 10 μl of the supernatant obtained by centrifugation at 10,000 g was incubated at 37° C. with 50 μl of the substrate solution composed by 6 mM 4-methylumbelliferyl α-D-galactoside (4-MU-α-Gal) and 90 mM N-acetylgalactosamine in 0.1 M citrate buffer (pH 4.5) for enzyme assay. One unit of intracellular enzyme activity was defined as one nmol of 4-methylumbelliferone released per hour at 37° C.
# [4] = test system: globotriaosylceramide metabolism; assay: Intracellular globotriaosylceramide metabolism with inhibitor in the medium; format: cell-based; conditions: 20 μM in the medium
# [5] = test system: lysosomal acid β-galactosidase (β-Gal); assay: Intracellular enhancement of β-Gal activity in GM1-gangliosidosis fibroblasts; format: cell-based, human; conditions: for β-Gal enhancement effect in fibroblasts of infant type disease (BGF-1 and BGF-6): DGJ 500 μM, 4-epi-isofagomine 50 μM; for intracellular β-Gal activity in GM1-gangliosidosis fibroblasts (summary): concentration ranges of 50-500 μM
# Procedure: In FIG. 7A, GM1-gangliosidosis fibroblasts were cultured with DGJ (4) at 500 μM for 5 days before being collected for enzyme assay. In FIG. 7B, GM1-gangliosidosis fibroblasts were cultured with 4-epi-isofagomine (21) at 50 μM for 5 days before being collected for enzyme assay. Strains BGF-1 and BGF-6 were diagnosed as infantile type, and all others were juvenile or adult types.
# as §1
# as §2, with “for 5” for “for 4”, “with PBS,” for “with phosphate-buffered saline (PBS),”, “solution of 1” for “solution composed by 6”, “4-methylumbelliferyl β-D-galactoside (4-MU-β-Gal)” for “4-methylumbelliferyl α-D-galactoside (4-MU-α-Gal) and 90 mM N-acetylgalactosamine”
# mutant α-Gal A (R301Q) [6] = biological target: T2, mutant α-Gal A (R301Q); conditions: neutral pH; cited from earlier work
# [7] = biological target: coffee bean α-galactosidase (Coffea arabica, UniProt Q42656); conditions: cited from earlier work
# Chain of coffee bean α-galactosidase (Q42656 16-378): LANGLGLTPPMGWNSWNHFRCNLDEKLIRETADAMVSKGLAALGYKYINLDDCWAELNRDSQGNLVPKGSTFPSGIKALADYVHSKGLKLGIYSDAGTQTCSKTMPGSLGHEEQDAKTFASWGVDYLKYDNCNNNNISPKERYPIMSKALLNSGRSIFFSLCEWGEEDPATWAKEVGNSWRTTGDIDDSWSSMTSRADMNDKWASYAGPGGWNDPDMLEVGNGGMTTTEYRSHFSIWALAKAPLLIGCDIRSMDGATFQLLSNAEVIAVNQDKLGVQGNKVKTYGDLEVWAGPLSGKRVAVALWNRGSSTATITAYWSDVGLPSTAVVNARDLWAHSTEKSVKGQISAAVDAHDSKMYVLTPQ
# human lysosomal α-Gal A = biological target: T4, human lysosomal α-Gal A (Homo sapiens, UniProt P06280); assay: In vitro inhibition of α-Gal A (recombinant, expressed in Sf-9 insect cells); format: biochemical
# T4 construct: made in house; host or cells: Sf-9 insect cells, recombinant baculovirus
# T4 sequence (P06280 32-429): T2 sequence (P06280 32-429 R301Q) with Q270R
# [8] = biological target: human β-glucocerebrosidase (Homo sapiens, UniProt P04062); assay: In vitro inhibition of human β-glucocerebrosidase; format: biochemical; conditions: 0.1M citrate buffer (pH 5.2), 4-MU-β-Glu as substrate
# Chain of human β-glucocerebrosidase (P04062 40-536): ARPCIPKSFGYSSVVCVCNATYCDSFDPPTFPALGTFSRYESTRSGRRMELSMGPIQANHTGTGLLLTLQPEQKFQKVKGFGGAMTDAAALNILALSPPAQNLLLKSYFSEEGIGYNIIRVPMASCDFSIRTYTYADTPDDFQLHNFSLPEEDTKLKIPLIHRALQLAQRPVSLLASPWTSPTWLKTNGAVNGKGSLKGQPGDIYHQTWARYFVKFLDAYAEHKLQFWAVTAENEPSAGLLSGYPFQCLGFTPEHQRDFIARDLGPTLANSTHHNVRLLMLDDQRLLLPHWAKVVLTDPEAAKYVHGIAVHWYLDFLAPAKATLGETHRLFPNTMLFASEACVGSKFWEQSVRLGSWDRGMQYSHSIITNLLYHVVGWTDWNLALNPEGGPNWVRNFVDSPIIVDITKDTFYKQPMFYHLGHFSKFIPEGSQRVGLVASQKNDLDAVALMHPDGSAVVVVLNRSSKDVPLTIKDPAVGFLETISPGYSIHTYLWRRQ
# [9] = biological target: T5, glucocerebrosidase (β-Glu), N370S/N370S (Homo sapiens, UniProt P04062, N409S); assay: Intracellular enhancement of β-Glu activity in Gaucher fibroblasts (N370S/N370S); format: cell-based; conditions: concentration ranges of 0.05-100 μM
# T5 construct: endogenous in cells; host or cells: human Gaucher patient fibroblasts, genotype N370S/N370S
# T5 sequence (P04062 40-536 N409S): T1 sequence (P04062 40-536 L483P) with N370S, P444L
smiles,measurement,setting,value
O[C@@H]1C[C@]2(O)N[C@H]1C[C@@H](O)[C@@H]2O [calystegine B1],increase of residual β-Glu activity in Gaucher fibroblasts,[1],76%
O[C@@H]1[C@@H](O)[C@H](O)[C@]2(O)C[C@@H](O)[C@H]1N2 [calystegine C1],increase of residual β-Glu activity in Gaucher fibroblasts,[1],136%
"OC[C@H]1NC[C@H](O)[C@@H](O)[C@H]1O [compound 4, 1-Deoxygalactonojirimycin]",mutant enzyme activity in lymphoblasts from Fabry patients,mutant α-Gal A (R301Q) [2],enhanced the mutant enzyme activity
same,enzyme activity in major organs of transgenic mice,mutant (R301Q) α-Gal A,substantially elevated the enzyme activity
same,"α-Gal A enzyme activity in R301Q lymphoblasts reached, % of normal","mutant α-Gal A (R301Q) [3]; 100 μM, 4 days",49 % of normal
same,increase of α-Gal A enzyme activity in R301Q lymphoblasts,mutant α-Gal A (R301Q) [3]; 4 days,about 14 fold
same,α-Gal A activity in R301Q lymphoblasts with increasing inhibitor concentration,"mutant α-Gal A (R301Q) [3]; range 1-100 μM, FIG. 5",elevated with increasing inhibitor concentration
same,intracellular inhibition of globotriaosylceramide metabolism,[4],did not cause intracellular inhibition
same,increase of residual β-Gal activity in BGF-7 fibroblasts,"[5]; 500 μM, 5 days, FIG. 7A",27 fold
same,β-Gal enhancement effect in fibroblasts of infant type disease (BGF-1 and BGF-6),[5]; 5 days,not efficient
same,intracellular β-Gal activity in GM1-gangliosidosis fibroblasts (summary),[5],effectively enhance
same,in vitro stability of mutant α-Gal A (R301Q),mutant α-Gal A (R301Q) [6],effectively increased in vitro stability
same,inhibition of coffee bean α-galactosidase (in words),[7],extremely powerful inhibitor
same,inhibition mode toward α-Gal A (Lineweaver-Burk plots),human lysosomal α-Gal A,competitive inhibitors
"CCCCC1NC(CO)C(O)C(O)C1O (stereo not drawn) [compound 16, β-1-C-Butyl-deoxygalactonojirimycin]",intracellular α-Gal A activity in Fabry lymphoblasts (summary),mutant α-Gal A (R301Q) [3],effectively increase
same,increase of α-Gal A enzyme activity in R301Q lymphoblasts,mutant α-Gal A (R301Q) [3]; 4 days,2.3 fold
same,enhancement of α-Gal A activity in R301Q lymphoblasts,"mutant α-Gal A (R301Q) [3]; inhibitor at 1000 μM, 4 days",6.3 fold
same,IC50,[7],0.71 µM
same,inhibition mode toward α-Gal A (Lineweaver-Burk plots),human lysosomal α-Gal A,competitive inhibitors
same,Ki,"human lysosomal α-Gal A; p-nitrophenyl-α-D-galactopyranoside as substrate, read-out: Ki for α-Gal A, from the slope of Lineweaver-Burk plots",16 µM
same,IC50,"human lysosomal α-Gal A; read-out: IC30 and (Ki)*: IC50 values (inhibitor concentration giving 50% inhibition) for α-Gal A, p-nitrophenyl-α-D-galactopyranoside as substrate, pH 4.5",24 µM
"O[C@@H]1C[C@H]2CC[C@](O)(N2)[C@H]1O [compound 17, Calystegine A3]",increase of residual β-Glu activity in Gaucher fibroblasts,[1],126%
same,intracellular α-Gal A activity in Fabry lymphoblasts (summary),mutant α-Gal A (R301Q) [3],effectively increase
same,α-Gal A activity in R301Q lymphoblasts with increasing concentration of calystegine compound,mutant α-Gal A (R301Q) [3]; 4 days,elevated with increasing concentration
same,IC50,[8],3.1 µM
same,intracellular β-Glu activity in Gaucher fibroblasts (summary),[9],effectively enhance
"O[C@@H]1[C@@H](O)[C@H](O)[C@]2(O)CC[C@H]1N2 [compound 18, calystegine B2]",increase of residual β-Glu activity in Gaucher fibroblasts,[1],230%
same,intracellular α-Gal A activity in Fabry lymphoblasts (summary),mutant α-Gal A (R301Q) [3],effectively increase
same,α-Gal A activity in R301Q lymphoblasts with increasing concentration of calystegine compound,mutant α-Gal A (R301Q) [3]; 4 days,elevated with increasing concentration
same,IC50,[8],0.99 µM
same,intracellular β-Glu activity in Gaucher fibroblasts (summary),[9],effectively enhance
"OC[C@H]1CNC[C@@H](O)[C@H]1O [compound 21, 4-epi-isofagomine]",β-Gal enhancement effect in fibroblasts of infant type disease (BGF-1 and BGF-6),[5]; 5 days,not efficient
same,intracellular β-Gal activity in GM1-gangliosidosis fibroblasts (summary),[5],effectively enhance
same,"intracellular β-Gal activity elevated to, % of normal","[5]; fibroblasts of juvenile and adult types, 5 days, FIG. 7B (50 μM)",9-53 % of normal
